Results reported in the OPERA property sets (Mansouri et al. 2018).
Where a SMILES comes first, the peptide text is derived from it. [ ]: non-standard residue; d: D form. Orn = NCCC[CH](N)C(=O)O

Structure (SMILES)	logP
CCCN(C=Nc1ccn(C2OC(CO)C(O)C2O)c(=O)n1)CCC (stereo unspecified)	0.24
Clc1ccc(-c2ccccc2)c(Cl)c1Cl	5.86
CCC(C)OC(=O)C(C(=O)OC(C)CC)=C1SC=CS1 (stereo unspecified)	4.89
N#CC(C#N)=NNc1ccccc1C(F)(F)F	4.2
CCN1C(=O)C(=O)c2c(cccc2[N+](=O)[O-])C1=O	0.82
NC(=Nc1ccccc1)NN=Cc1ccc2ccccc2n1	0.99
O=C(O)CCCCC(S)CCS (stereo unspecified)	2.41
NS(=O)(=O)c1cc(C(=O)O)cc(N2CCCC2)c1Oc1ccccc1	3.92
CCCCCOc1cccc(NC(=O)OCCN2CCOCC2)c1	4.13
O=C(Cc1ccccc1)Nc1cccc(C(F)(F)F)c1	3.84
CN1C(=O)CN=C(c2ccccc2Cl)c2cc([N+](=O)[O-])ccc21	2.56
C#CCOc1c(Cl)cc(NC=NOc2ccc(C)cc2)cc1Cl	4.8
Fc1ccc(SCc2ccccc2CCCN2CCOCC2)cc1	3.69
CCC(C)NC(=O)C=C(N)c1ccc(Cl)cc1 (stereo unspecified)	2.94
CC(=O)NC(CCCN)C(=O)NC(CC(C)C)C(N)=O (stereo unspecified) (Ac-[Orn]-Leu-NH2; configuration not given here)	-0.71
CCOC(=O)c1ccc(N=NN(C)C)cc1	3.66
Cc1ccc(C2(Cn3cncn3)OCCO2)cc1	1.55
CCN1C(=O)C(=O)c2ccccc2C1=O	1.13
CC(=O)Nc1ccnnc1	-0.41
CCCCCc1cc(OCc2ccc(-c3ccccc3)cc2)c2c(c1)OC(C)(C)C1CC=C(C)CC21 (stereo unspecified)	10.9
CC(C)(C)NCC(O)COCCCc1ccccc1 (stereo unspecified)	2.58
O=C(NN1CCCCC1)NS(=O)(=O)c1ccc(Cl)cc1	0.84
CCCN(C=Nc1ccn(C2CC(O)C(CO)O2)c(=O)n1)CCC (stereo unspecified)	0.4
COc1cc(Cc2cnc(N)nc2N)cc(Br)c1OC	2.23
O=[N+]([O-])C=C1NCCN1Cc1cnc(Cl)s1	-0.04
CCC(C)NC(=O)C(=Cc1ccccc1)Cc1ccccc1 (stereo unspecified)	3.99

Structure (SMILES)	logP
CC(=O)NC(CCCN)C(=O)NC(Cc1ccccc1)C(N)=O (stereo unspecified)	0.41
CN1C=CCC(C(=O)OC2CCC(NC(=O)N(CCCl)N=O)CC2)=C1 (stereo unspecified)	2.53
CC(C1CC1)C(O)(Cn1cncn1)c1ccc(Cl)cc1 (stereo unspecified)	2.9
CNc1nccn2cc(-c3ccc(S(C)=O)cc3OC)nc12 (stereo unspecified)	1.88
Clc1cc(Cl)c(Cl)c(-c2cc(Cl)c(Cl)cc2Cl)c1	7.12
CC(=O)NC(CC(C)C)C(=O)NC(Cc1ccccc1)C(=O)NC(CCCNC(=N)N)C(N)=O (stereo not drawn) (Ac-Leu-Phe-Arg-NH2; configuration not given here)	-0.12
CC(=O)NC(CCCCN)C(=O)NC(Cc1ccccc1)C(=O)NC(C(N)=O)C(C)C (stereo unspecified)	0.51
Cc1nc([N+](=O)[O-])c(C)[nH]1	0.43
Cc1c(O)c(=O)ccn1-c1ccc([N+](=O)[O-])cc1	0.76
Clc1ccc(Oc2nc(C(Cl)(Cl)Cl)nc(C(Cl)(Cl)Cl)n2)cc1	5.67
CN(C)C=Nc1ccn(C2CC(O)C(CO)O2)c(=O)n1 (stereo unspecified)	-1.54
CC1CC2C3CCC4=CC(=O)C=CC4(C)C3(F)C(O)CC2(C)C1(O)C(=O)NC1CCCCC1 (stereo unspecified)	3.54
CN(C)CCC[N+]1([O-])c2ccccc2Sc2ccccc21	1.9
N#CCc1ccc(O)c2ncccc12	1.81
Clc1cc2c(c(Cl)c1Cl)Oc1c(Cl)cccc1O2	6.39
O=[N+]([O-])C=C1NCCN1CCc1ccc(Cl)nc1	-0.23
CCC1COC(Cn2cncn2)(c2ccc([N+](=O)[O-])cc2)O1 (stereo unspecified)	1.52
CC1=C(c2ccccc2)CCN(C)C1	3.18
CC1=C(C(=O)O)N2C(=O)C(NC(=O)C(OC(=O)C(C)C)c3ccccc3)C2SC1 (stereo unspecified)	2.05
Clc1ccc(-c2c(Cl)c(Cl)cc(Cl)c2Cl)cc1Cl	7.2
O=c1[nH]c(Nc2ccccc2)nc2c1ncn2CC(O)CSCCO (stereo unspecified)	0.83
Cc1nc([N+](=O)[O-])c(Br)n1C	0.44
Cc1cc(=O)oc2cc(OC3OC(CO)C(O)C(O)C3O)ccc12 (stereo unspecified)	-0.66
Cc1cccc(OCCO)c1	1.76
CC(=O)NC(CCCCN)C(=O)NC(CC(C)C)C(N)=O (stereo not drawn) (Ac-Lys-Leu-NH2; configuration not given here)	-0.26
CC1CC2C3CCC4=CC(=O)C=CC4(C)C3(F)C(O)CC2(C)C1(O)C(=O)NCCc1ccccc1 (stereo unspecified)	3.66

Structure (SMILES)	logP
COc1cccc(OCc2ccccc2CCCN2CCC(O)CC2)c1	3.35
CCCCCCC(=O)OC(C(=O)NC1C(=O)N2C(C(=O)O)=C(C)CSC12)c1ccccc1 (stereo unspecified)	3.23
CCCCCOc1ccccc1NC(=O)OCCN1CCOCC1	3.7
COc1ccc(NC(=O)OCCN2CCOCC2)cc1	1.7
CC(=NOCC(=O)O)c1cc(Oc2ccc(C(F)(F)F)cc2Cl)ccc1[N+](=O)[O-]	4.3
CCC(=O)OC1(c2ccccc2)CCN(C)C(C)C1C (stereo unspecified)	3.13
COc1nc(C(Cl)(Cl)Cl)nc(C(Cl)(Cl)Cl)n1	3.64
NC(=O)c1ccccc1N=NN1CCC1	2.91
O=C(c1c[nH]c2ccccc12)C(F)(F)F	3.44
c1ccc(-c2ccc(C(c3ccccc3)n3ccnc3)cc2)cc1 (stereo unspecified)	4.77
O=C(O)CCCCCCCc1ccccc1	4.09
O=S1(=O)NC(C2CCCCC2)=Nc2ccccc21	2.2
CCCCCCCOc1ccc(NC(=O)OCCN2CCOCC2)cc1	4.96
CC(=O)NC(CCCCN)C(=O)NC(Cc1ccccc1)C(=O)NC(CC(C)C)C(N)=O (stereo not drawn) (Ac-Lys-Phe-Leu-NH2; configuration not given here)	0.98
COc1ccccc1NC(=O)OCCN1CCOCC1	1.73
COc1cc(S(C)=O)ccc1-c1nc2ccccc2[nH]1 (stereo unspecified)	2.15
CCSc1nc(NC(C)C)nc(NC(C)C)n1	3.81
Cc1cn(C2CC(N=[N+]=[N-])C(COC(=O)CCCNC(=O)C34CC5CC(CC(C5)C3)C4)O2)c(=O)[nH]c1=O (stereo unspecified)	2.47
Cc1ccc(Cl)c(OCC(O)CNC(C)(C)C)c1 (stereo unspecified)	2.97
CC(CO)OC(C)CO (stereo unspecified)	-0.67
[N-]=[N+]=CC(=O)NCC(=O)N1CCOCC1	-0.47
O=Cc1ccc(O)c2ncccc12	1.63
CCN1C(=O)C(=O)c2c(OC)cccc2C1=O	0.9
CCOC(=O)CCC(C)n1nnc2ccccc21 (stereo unspecified)	2.64
c1ccc2c3c([nH]c2c1)CN1CCNCC1C3 (stereo unspecified)	0.36
CCC(=O)C(CS(=O)(=O)c1ccccc1)c1ccc(Cl)cc1 (stereo unspecified)	2.69

Structure (SMILES)	logP
Fc1ccc(C(c2ccc(F)cc2)N2CCN(C/C=C/c3ccccc3)CC2)cc1	5.78
Nc1nc(N)nc(C(Cl)(Cl)Cl)n1	1.24
c1ccc(SCc2ccc(CCCN3CCOCC3)cc2)cc1	3.62
CC(C)c1cccc(C(C)C)c1N	3.18
CCCCCCOC(=O)n1cc(F)c(=O)[nH]c1=O	2.04
CCOC(=O)Cn1ccnc1C=Cc1ccc([N+](=O)[O-])o1	1.27
COc1cccc2c1C(=O)c1c(O)c3c(c(O)c1C2=O)CC(O)(C(O)CO)CC3OC1CC(N2CCOCC2C#N)C(O)C(C)O1 (stereo unspecified)	1.56
O=C(NCCCOc1cccc(CN2CCCCC2)c1)c1ccccc1	3.97
CCOC(=O)Cn1cnc([N+](=O)[O-])c1I	0.57
CCC(C)C(NC(=O)C(CC(=O)O)NC(C)=O)C(=O)NC(Cc1ccccc1)C(N)=O (stereo unspecified)	0.61
OC1CCN(CCCc2ccccc2COc2ccc(F)cc2)CC1	3.3
CCCOc1cccc(NC(=O)OCCN2CCOCC2)c1	3.04
Cc1ccc(C)c(Cl)c1	3.86
CCC(=O)C1(c2cccc(OC(=O)OC)c2)CCN(C)CC1	0.75
CCCn1cnc2c(NC(C)=O)ncnc21	0.09
CC1CC2C3CCC4=CC(=O)C=CC4(C)C3(F)C(O)CC2(C)C1(O)C(=O)NC(C)(C)C (stereo unspecified)	3.2
CNC(=O)C(Cc1ccc(O)cc1)NC(C)=O (stereo unspecified)	-0.32
O=C(O)CCC(S)CCS (stereo unspecified)	1.4
CC(O)COc1ccc(Cl)cc1 (stereo unspecified)	2.41
O=c1cc2ccccc2n[nH]1	0.68
CC(=O)OC1CC2(O)C3CCC4CC(OC5CC(O)C(OC6CC(O)C(OC7CC(O)C(O)C(C)O7)C(C)O6)C(C)O5)CCC4(C)C3CCC2(C)C1C1=CC(=O)OC1 (stereo unspecified)	2.16
CN1CCC(=C2c3ccccc3CCc3cccnc32)CC1	3.59
Clc1ccc(-c2c(Cl)ccc(Cl)c2Cl)c(Cl)c1Cl	7.04
CCC(=O)OC(C(=O)NC1C(=O)N2C(C(=O)O)=C(C)CSC12)c1ccccc1 (stereo unspecified)	1.47
CNC(Cc1ccccc1)C(=O)O (stereo unspecified)	-1.53
CCOc1ccc(C2(C(=O)OC)CC(F)(F)C2(F)F)cc1 (stereo unspecified)	4.06

Structure (SMILES)	logP
Cc1cccc(C)c1NN=C(C#N)C#N	2.8
CCCCCc1ccc(OCC(OC(=O)n2ccnc2)C(C)(C)C)cc1 (stereo unspecified)	5.26
c1ccc(-c2nnn[nH]2)cc1	1.65
CCC(C)NC(=O)C(Br)=Cc1ccccc1 (stereo unspecified)	2.66
CS(=O)(=O)N(c1ccccc1[N+](=O)[O-])S(C)(=O)=O	0.81
CCC(C)NC(=O)C(=Cc1ccccc1)c1ccccc1 (stereo unspecified)	4.05
CNCCN(C)S(=O)(=O)c1ccc(CONC(N)=O)c([N+](=O)[O-])c1	0.45
CCCCCc1cc(CCCCN2CC(=O)c3ccccc3C2=O)c2c(c1)OC(C)(C)C1CC=C(C)CC21 (stereo unspecified)	9.07
O=C(O)Cc1nn(Cc2nc3cc(Br)ccc3s2)c(=O)c2ccccc12	3.35
CNC(=NC#N)NCCSCc1nccs1	0.89
Nc1nc(Cl)c2ncn(C3OC(CO)CC3F)c2n1 (stereo unspecified)	0.28
C#CCOc1c(Cl)cc(NC=NOCCC)cc1Cl	4
CCCn1c(=O)c2[nH]c(-c3ccc(Cl)cc3N)nc2n(CCC)c1=O	4.02
CC(=O)OC1CC(OC2CCC3(C)C(CCC4C3CC(O)C3(C)C(C5=CC(=O)OC5)CCC43O)C2)OC(C)C1OC1CC(O)C(OC2CC(O)C(O)C(C)O2)C(C)O1 (stereo unspecified)	1.71
CCCCCOc1ccccc1NC(=O)OCCN1CCCCC1	4.97
Cc1nc2sccn2c(=O)c1CCN1CCC(=C(c2ccc(F)cc2)c2ccc(F)cc2)CC1	5.2
CN1C(=O)C(=O)C(=O)N(C)C1=O	-0.6
CCOC(=O)C(CC)C(CO)Cc1cncn1C (stereo unspecified)	0.73
COC(=O)c1c(C)[nH]c(-c2ncccc2Cl)c1C(=O)OC	1.51
CN(C)N=Nc1ccc(S(=O)(=O)CCO)cc1	1.15
CCOc1ccc(C2(C(=O)OC)CC2(Cl)Cl)cc1 (stereo unspecified)	4.1
O=P([O-])(Oc1ccc(Cl)cc1)Oc1ccc(Cl)cc1	2.64
